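The compound was tested at five concentrations on cells cultured in 96-well plates, with a 48-hour exposure period. Abbreviation: GI50, concentration required for 50% inhibition of growth.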 Calls of active or inactive are those of the source. No stated cut-off is given here; in the data, active = GI50 up to about 1.1 µM and inactive = higher.
Assays:
Test in all cases: inhibition of tumour cell growth, NCI panel, 48 h
SNB-19 = system: SNB-19
A549 = system: A549
Malme-3M = system: Malme-3M
SF-268 = system: SF-268
IGROV-1 = system: IGROV-1
U-251 = system: U-251
MDA-N = system: MDA-N
DU-145 = system: DU-145
TK-10 = system: TK-10
OVCAR-5 = system: OVCAR-5
NCI/ADR-RES = system: NCI/ADR-RES
COLO 205 = system: COLO 205
SK-MEL-5 = system: SK-MEL-5
SNB-75 = system: SNB-75
RXF 393 = system: RXF 393
OVCAR-3 = system: OVCAR-3
KM12 = system: KM12
NCI-H460 = system: NCI-H460
MOLT-4 = system: MOLT-4
UACC-62 = system: UACC-62
Hs-578T = system: Hs-578T
786-0 = system: 786-0
ACHN = system: ACHN
RPMI-8226 = system: RPMI-8226
EKVX = system: EKVX
CAKI-1 = system: CAKI-1
M14 = system: M14
SW-620 = system: SW-620
T47D = system: T47D
SK-OV-3 = system: SK-OV-3
SN12C = system: SN12C
MCF7 = system: MCF7
UO-31 = system: UO-31
CCRF-CEM = system: CCRF-CEM
HCT-15 = system: HCT-15
OVCAR-8 = system: OVCAR-8
MDA-MB-435 = system: MDA-MB-435
SK-MEL-28 = system: SK-MEL-28
HCC 2998 = system: HCC 2998
UACC-257 = system: UACC-257
NCI-H226 = system: NCI-H226
SK-MEL-2 = system: SK-MEL-2
MDA-MB-231 = system: MDA-MB-231
SF-295 = system: SF-295
PC-3 = system: PC-3
HCT-116 = system: HCT-116
LOX IMVI = system: LOX IMVI
SF-539 = system: SF-539
NCI-H23 = system: NCI-H23
K562 = system: K562
A498 = system: A498
NCI-H522 = system: NCI-H522
OVCAR-4 = system: OVCAR-4
HOP-62 = system: HOP-62
HT-29 = system: HT-29
HOP-92 = system: HOP-92
HL-60 = system: HL-60
BT-549 = system: BT-549

COC(=O)c1ccc2c(c1)sc1nc(-c3ccc(OC)cc3)cn12
GI50 (SNB-19): 66.5 µM (inactive) | GI50 (A549): > 100 µM (inactive) | GI50 (Malme-3M): > 100 µM (inactive) | GI50 (SF-268): 83.8 µM (inactive) | GI50 (IGROV-1): 48.2 µM (inactive) | GI50 (U-251): 31.7 µM (inactive) | GI50 (MDA-N): 78.9 µM (inactive) | GI50 (DU-145): > 100 µM (inactive) | GI50 (TK-10): > 100 µM (inactive) | GI50 (OVCAR-5): > 100 µM (inactive) | GI50 (NCI/ADR-RES): > 100 µM (inactive) | GI50 (COLO 205): 31.9 µM (inactive) | GI50 (SK-MEL-5): 21.1 µM (inactive) | GI50 (SNB-75): 34.8 µM (inactive) | GI50 (RXF 393): 69.8 µM (inactive) | GI50 (OVCAR-3): > 100 µM (inactive) | GI50 (KM12): 56.1 µM (inactive) | GI50 (NCI-H460): > 100 µM (inactive) | GI50 (MOLT-4): > 100 µM (inactive) | GI50 (UACC-62): > 100 µM (inactive) | GI50 (Hs-578T): 37.3 µM (inactive) | GI50 (786-0): > 100 µM (inactive) | GI50 (ACHN): > 100 µM (inactive) | GI50 (RPMI-8226): 32.4 µM (inactive) | GI50 (EKVX): > 100 µM (inactive) | GI50 (CAKI-1): > 100 µM (inactive) | GI50 (M14): > 100 µM (inactive) | GI50 (SW-620): > 100 µM (inactive) | GI50 (T47D): 35.2 µM (inactive) | GI50 (SK-OV-3): > 100 µM (inactive) | GI50 (SN12C): > 100 µM (inactive) | GI50 (MCF7): 66.2 µM (inactive) | GI50 (UO-31): > 100 µM (inactive) | GI50 (CCRF-CEM): 39.9 µM (inactive) | GI50 (HCT-15): > 100 µM | GI50 (OVCAR-8): 91.4 µM (inactive) | GI50 (MDA-MB-435): 42.8 µM (inactive) | GI50 (SK-MEL-28): > 100 µM (inactive) | GI50 (HCC 2998): > 100 µM (inactive) | GI50 (UACC-257): 49 µM (inactive) | GI50 (NCI-H226): > 100 µM (inactive) | GI50 (SK-MEL-2): > 100 µM (inactive) | GI50 (MDA-MB-231): > 100 µM (inactive) | GI50 (SF-295): > 100 µM (inactive) | GI50 (PC-3): > 100 µM (inactive) | GI50 (HCT-116): > 100 µM (inactive) | GI50 (LOX IMVI): > 100 µM (inactive) | GI50 (SF-539): 59.8 µM (inactive) | GI50 (NCI-H23): > 100 µM (inactive) | GI50 (K562): 38.2 µM (inactive) | GI50 (A498): > 100 µM (inactive) | GI50 (NCI-H522): 62.2 µM (inactive) | GI50 (OVCAR-4): > 100 µM (inactive) | GI50 (HOP-62): > 100 µM (inactive) | GI50 (HT-29): 83.4 µM (inactive) | GI50 (HOP-92): 24.7 µM (inactive) | GI50 (HL-60): 25.1 µM (inactive) | GI50 (BT-549): 43.7 µM (inactive)
